The numbers were not newly measured in patent publication US6774131B1, “Remedies for endothelin-induced diseases” (Yamanouchi Pharmaceutical Co., Ltd., priority 2000, dated 2004), which cites them from elsewhere.

For data set [1], the system named is prostate cancer patients. To be noted: reported, Proceeding of ASCO,19,1314,2000; cited from earlier work.
For data set [2] the following is noted: 20 mg; 6th International Conference on Endothelin, Abstract No. 219; cited from earlier work.

What is called AUC is the area under the concentration-time curve, a measure of exposure. Usually Cmax stands for the highest concentration seen after dosing. With `CCCCN(CCCC)C(=O)CN1C[C@H](c2ccc3c(c2)OCO3)[C@@H](C(=O)O)[C@@H]1c1ccc(OC)cc1` [ABT-627, 1-(N,N-dibutylcarbamoylmethyl)-2(R)-(4-methoxyphenyl)-4(S)-(3,4-methylenedioxyphenyl)pyrrolidine-3(R)-carboxylic acid], in data set [1], the minimum effective dose is recorded as 10 mg. In data set [2], the AUC was 802 ng·h/mL, the Cmax was 93.5 ng/mL, the T max is given as 0.6 h and the “T ½” value is on record as 28.4 h.
